From US20110034424A1, “METHOD FOR THE LONG TERM NSAID USE” (SUCAMPO AG, priority 2009, published 2011)

What was measured:
[1] = test system: ulcers induced by indomethacin and by stress; details: cited from earlier work
[2] = test system: patients with osteoarthritis and/or rheumatoid arthritis; assay: 12-week double-blinded, randomized, dose-ranging, placebo-controlled phase 2 trial of cobiprostone with naproxen; type: in vivo, human; details: for Drug-related gastrointestinal adverse event rate / Median number of days in the treatment period / Related adverse event: diarrhea / Related adverse event: gastritis / Related adverse event: nausea / Related overall adverse event rate / Withdrawal rate from the trial due to an adverse event / Retention rate at Week 8 / Retention rate at Week 12: naproxen 500 mg twice a day
Protocol: A total of 124 patients with osteoarthritis and/or rheumatoid arthritis were enrolled in 12-week, double-blinded, randomized, dose-ranging and placebo-controlled phase 2 trial. All patients in the trial received 500 mg of naproxen twice a day. There were four treatment cohorts: one cohort received placebo while the other three cohorts received 18 mcg of cobiprostone either once, twice or three times a day (daily totals of 18, 36 or 54 mcg, respectively).
Retention rate and withdrawal rate were evaluated by the following definitions.
Retention rate: The number of intent-to-treat subjects that remained in the trial at a specified week.
Withdrawal Rate: The number of randomized subjects that discontinued the trial. The reasons for discontinuation were:
b. Discontinued due to ulcer
The withdrawal rate can be expressed/calculated for a single reason such as adverse events, or for any combination of the discontinuation reasons.

## CC[C@H](C)CC(F)(F)[C@@]1(O)CC[C@H]2[C@@H](CC(=O)[C@@H]2CCCCCCC(=O)O)O1 [cobiprostone, 7{(2R,4aR,5R,7aR)-2-[(3S)-1,1-difluoro-3-methylpentyl]-2-hydroxy-6-oxooctahydrocyclopenta[b]pyran-5-yl}heptanoic acid]
[1]; animal studies, indomethacin-induced ulcers
  Formation of ulcers induced by indomethacin: protected against formation of ulcers
[1]; animal studies, stress-induced ulcers
  Formation of ulcers induced by stress: protected against formation of ulcers
[1]
  Safety in animal studies: acceptable safety
[2]; Week 12, 18, 36 and 54 mcg/day, dose-dependent increase
  Retention rates at Week 12 compared to naproxen with placebo: statistically significant
[2]; cobiprostone 18 mcg/day
  Drug-related gastrointestinal adverse event rate: 60.0%
  Median number of days in the treatment period: 60.0 days
  Related adverse event: diarrhea: 13.3%
  Related adverse event: gastritis: 13.3%
  Related adverse event: nausea: 10.0%
  Related overall adverse event rate: 60.0%
  Withdrawal rate from the trial due to an adverse event: 13.3%
  Retention rate at Week 8: 67%
[2]; cobiprostone 18 mcg/day, Week 12
  Retention rate at Week 12: 47%
[2]; cobiprostone 36 mcg/day
  Drug-related gastrointestinal adverse event rate: 67.7%
  Median number of days in the treatment period: 82.0 days
  Related adverse event: diarrhea: 32.3%
  Related adverse event: gastritis: 6.5%
  Related adverse event: nausea: 16.1%
  Related overall adverse event rate: 71.0%
  Withdrawal rate from the trial due to an adverse event: 16.1%
  Retention rate at Week 8: 66%
[2]; cobiprostone 36 mcg/day, Week 12
  Retention rate at Week 12: 52%
[2]; cobiprostone 54 mcg/day
  Drug-related gastrointestinal adverse event rate: 67.7%
  Median number of days in the treatment period: 83.0 days
  Related adverse event: diarrhea: 35.5%
  Related adverse event: gastritis: 9.7%
  Related adverse event: nausea: 16.1%
  Related overall adverse event rate: 67.7%
  Withdrawal rate from the trial due to an adverse event: 16.1%
  Retention rate at Week 8: 90%
[2]; cobiprostone 54 mcg/day, Week 12
  Retention rate at Week 12: 77%
[2]; overall, 18-54 mcg/day with naproxen 500 mg twice a day
  Tolerability in patients receiving NSAID therapy: well tolerated
